The text below walks through data of US9555038B2, “Heterocycle-substituted tetracyclic compounds and methods of use thereof for the treatment of viral diseases” (Merck Sharp & Dohme Corp., priority 2013, dated 2017).

Where two headings read alike, the source gives them in different places.

In assay [1] the test system is HCV replicon 1AY93H. In words: Cell-based HCV Replicon Assay A, replicon 1AY93H. How it is done:
(§1) To measure cell-based anti-HCV activity of compounds of the present invention, two complimentary assays were employed using various replicons. In the first assay (“Replicon Assay A”), replicon cells were seeded at 2000 cells/well in 384-well 384-well flat bottom tissue culture treated clear bottom plate (Corning 3707) in the presence of the test compound. Various concentrations of test compound, typically in 10 serial dilutions, were added to the assay mixture, with the starting concentration ranging from 333.3 nM to […]. The final concentration of DMSO was 0.5%. Fetal bovine serum was 5%, in the assay media. Cells were harvested on day 3 by removing media and washing the cells with a suitable wash buffer. The cells are lysed with the addition of 1× Qiagen lysis buffer (Cat #1062731). The replicon RNA level was measured using real time PCR (TaqMan® EZ RT-PCR, Applied Biosystems 403028) with the following primers and probes: […]
(§2) Cyclophilin RNA was used as endogenous control and was amplified in the same reaction as NS5B (multiplex PCR). The real-time RT-PCR reactions were run on ABI PRISM 7900HT Sequence Detection System using the following program: 50° C. for 2 minutes, 60° C. for 30 minutes, 95° C. for 5 minutes, 40 cycles of 94° C. for 20 sec, 55° C. for 1 minutes.
(§3) The amount of HCV replicon RNA per cell is quantified using a linear regression curve for a known nanogram (ng) amount of HCV replicon total RNA. This is established by plotting the Cycle Threshold values (Ct) from the Neo probe and primer set versus the log (ng) for each HCV replicon total RNA standard. The amount of HCV RNA for each replicon sample is calculated by taking the sample's Ct value, minus the line intercept, divided by the slope of the line. Similarly, the amount of Cyclophilin mRNA per cell is also quantified using a linear regression curve for a known nanogram (ng) amount of HCV replicon total RNA. Again, this is established by plotting the Cycle Threshold values (Ct) from the Cyclophilin probe and primer set versus the log (ng) for each HCV replicon total RNA standard.
(§4) Data was obtained for various compounds of the present invention using the methods described in the Example above, and is presented in the table immediately below. Data for replicons 1A, 1AY93H and 2B were obtained using Replicon Assay A and data for replicons 1AQ30D and 1B were obtained using Replicon Assay B.

For assay [2], the system named is HCV replicon 2B. The assay is described as follows: Cell-based HCV Replicon Assay A, replicon 2B. How it is done: as §1, §2, §3, §4
Assay [3] relates to HCV replicon 1A. The assay is described as follows: Cell-based HCV Replicon Assay A, replicon 1A. How it is done: as §1, §2, §3, §4
Where [4] appears, read: read-out: 1A Y93H IC50, replicon 1AY93H.
Where [5] appears, read: replicon 1AY93H, read-out: 1A Y93H IC50.
The mark [6] stands for this setting: Hepatitis C virus, read-out: 1A Y93H IC50 (nM), replicon 1AY93H.
The mark [7] stands for this setting: Hepatitis C virus, read-out: 2B IC50 (nM), replicon 2B.

With `COC(=O)N[C@H](C(=O)N1CCC[C@H]1c1ncc(-c2cc(F)c3c(c2)OC(c2cnc(-c4ccc(F)cc4F)s2)n2c-3cc3cc(-c4cnc([C@@H]5CCCN5C(=O)[C@@H](NC(=O)OC)C(C)C)[nH]4)ccc32)[nH]1)C(C)C` (single isomer, unassigned) [Compound 99], the IC50 was 0.26 nM in assay [1] (setting [4]); 0.1 nM in assay [2] (read-out: 2B IC50, replicon 2B); 0.0016 nM in assay [3].
Take `COC(=O)N[C@H](C(=O)N1CCC[C@H]1c1ncc(-c2cc(F)c3c(c2)OC(c2cnc(C4CC4)s2)n2c-3cc3cc(-c4cnc([C@@H]5CCCN5C(=O)[C@@H](NC(=O)OC)C(C)C)[nH]4)ccc32)[nH]1)C(C)C` (single isomer, unassigned) [Compound 9]: the IC50 in assay [1] (setting [4]) was 0.86 nM; in assay [2] (read-out: 2B IC50, replicon 2B), 1.56 nM; in assay [3] (Hepatitis C virus), 0.0016 nM.
As to `COC(=O)N[C@H](C(=O)N1CCC[C@H]1c1ncc(-c2cc(F)c3c(c2)OC(c2ncc(C4CC4)s2)n2c-3cc3cc(-c4cnc([C@@H]5CCCN5C(=O)[C@@H](NC(=O)OC)C(C)C)[nH]4)ccc32)[nH]1)C(C)C` (single isomer, unassigned) [Compound 8], the IC50 came out at 0.15 nM in assay [1] (setting [4]); 0.14 nM in assay [2] (read-out: 2B IC50, replicon 2B); 0.0017 nM in assay [3].
For `CCc1ncc(C2Oc3cc(-c4cnc([C@@H]5CCCN5C(=O)[C@@H](NC(=O)OC)C(C)C)[nH]4)cc(F)c3-c3cc4cc(-c5cnc([C@@H]6C[C@H]7C[C@H]7N6C(=O)[C@@H](CC(=O)OC)C(C)C)[nH]5)ccc4n32)s1` (single isomer, unassigned) [Compound 84] the same measures were 0.0708 nM, 0.425 nM and 0.0037 nM.
On to `COC(=O)NC(C(=O)N1CCC[C@H]1c1ncc(-c2ccc3c(c2)cc2n3C(c3cnc(CC4CC4)s3)Oc3cc(-c4cnc([C@@H]5CCCN5C(=O)[C@@H](NC(=O)OC)C(C)C)[nH]4)cc(F)c3-2)[nH]1)C1CCOC(C)(C)C1` (single isomer, unassigned) [Compound 538], for which the IC50 in assay [1] (setting [5]) was found to be 0.579 nM; in assay [2] (replicon 2B, read-out: 2B IC50) it was 0.117 nM; in assay [3] it was 0.0012 nM.
Take `COC(=O)N[C@H](C(=O)N1CCC[C@H]1c1ncc(-c2cc(F)c3c(c2)OC(c2cnc(CC(C)(C)C)s2)n2c-3cc3cc(-c4cnc([C@@H]5CCCN5C(=O)[C@@H](NC(=O)OC)C(C)C)[nH]4)ccc32)[nH]1)C(C)C` (single isomer, unassigned) [Compound 523]: the IC50 in assay [1] (setting [5]) was found to be 0.13 nM; in assay [3] it was 0.0012 nM.
`COC(=O)N[C@H](C(=O)N1CCC[C@H]1c1ncc(-c2cc(F)c3c(c2)OC(c2cnc(OC)s2)n2c-3cc3cc(-c4cnc([C@@H]5CCCN5C(=O)[C@@H](NC(=O)OC)C(C)C)[nH]4)ccc32)[nH]1)C(C)C` (single isomer, unassigned) [Compound 13]: the concentration for half-maximal inhibition (IC50) in assay [1] (setting [4]) came out at 0.621 nM; in assay [2] (read-out: 2B IC50, replicon 2B), 0.446 nM; in assay [3] (Hepatitis C virus) it was 0.0011 nM.
Consider `CCc1ncc(C2Oc3cc(-c4cnc([C@@H]5CCCN5C(=O)[C@@H](NC(=O)OC)C(C)C)[nH]4)cc(F)c3-c3cc4cc(-c5cnc([C@@H]6CCCN6C(=O)[C@@H](NC(=O)OC)C(C)C)[nH]5)ccc4n32)s1` (single isomer, unassigned) [Compound 82], for which the 50% inhibitory concentration (IC50) in assay [1] (setting [4]) is 1.58 nM; in assay [2] (read-out: 2B IC50, replicon 2B), 1.1 nM; in assay [3], 0.0023 nM.
For `COC(=O)NC(C(=O)N1CCC[C@H]1c1ncc(-c2ccc3c(c2)cc2n3C(c3cnc(C4CC4)s3)Oc3cc(-c4cnc([C@@H]5CCCN5C(=O)[C@@H](NC(=O)OC)C(C)C)[nH]4)cc(F)c3-2)[nH]1)C1C[C@@H](C)O[C@@H](C)C1` (single isomer, unassigned) [Compound 306], the IC50 in assay [1] (setting [4]) was determined as 0.244 nM; in assay [2] (read-out: 2B IC50, replicon 2B), 0.145 nM; in assay [3] (Hepatitis C virus) it was 0.003 nM.
Turning to `COC(=O)NC(C(=O)N1[C@@H]2C[C@@H]2C[C@H]1c1ncc(-c2ccc3c(c2)cc2n3C(c3cnc(C(C)C)s3)Oc3cc(-c4cnc([C@@H]5CCCN5C(=O)[C@@H](NC(=O)OC)C(C)C)[nH]4)cc(F)c3-2)[nH]1)C1CCOC(C)(C)C1` (single isomer, unassigned) [Compound 69], the IC50 was determined as 2.87 nM in assay [1] (setting [4]) and 0.0424 nM in assay [3].
As for `CCC(CC)c1ncc(C2Oc3cc(-c4cnc([C@@H]5CCCN5C(=O)[C@@H](NC(=O)OC)C(C)C)[nH]4)cc(F)c3-c3cc4cc(-c5cnc([C@@H]6CCCN6C(=O)[C@@H](NC(=O)OC)C(C)C)[nH]5)ccc4n32)s1` (single isomer, unassigned) [Compound 421], the half-inhibitory concentration (IC50) in assay [1] (setting [6]) is 0.014 nM; in assay [2] (setting [7]), 0.103 nM; in assay [3] it was 0.0037 nM.
`COC(=O)NC(C(=O)N1CCC[C@H]1c1ncc(-c2ccc3c(c2)cc2n3C(c3cnc(C)s3)Oc3cc(-c4cnc([C@@H]5CCCN5C(=O)[C@@H](NC(=O)OC)C(C)C)[nH]4)cc(F)c3-2)[nH]1)C1C[C@@H](C)O[C@@H](C)C1` (single isomer, unassigned) [Compound 29]: the IC50 in assay [1] (setting [4]) was found to be 1.09 nM; in assay [2] (read-out: 2B IC50, replicon 2B) it was 0.192 nM; in assay [3] (Hepatitis C virus), 0.002 nM.
Regarding `COC(=O)N[C@H](C(=O)N1CCC[C@H]1c1ncc(-c2cc(F)c3c(c2)OC(c2cnc(C4CCCCC4)s2)n2c-3cc3cc(-c4cnc([C@@H]5CCCN5C(=O)[C@@H](NC(=O)OC)C(C)C)[nH]4)ccc32)[nH]1)C(C)C` (single isomer, unassigned) [Compound 528], the IC50 in assay [1] (setting [4]) amounted to 1.15 nM; in assay [2] (read-out: 2B IC50, replicon 2B), 0.727 nM; in assay [3], 0.0014 nM.
With `COC(=O)NC(C(=O)N1CCC[C@H]1c1ncc(-c2ccc3c(c2)cc2n3C(c3cnc(C4CC4)s3)Oc3cc(-c4cnc([C@@H]5CCCN5C(=O)[C@@H](NC(=O)OC)C(C)C)[nH]4)cc(C)c3-2)[nH]1)C1C[C@@H](C)O[C@@H](C)C1` (single isomer, unassigned) [Compound 215], the 50% inhibitory concentration (IC50) in assay [1] (setting [6]) stood at 0.828 nM; in assay [2] (setting [7]), 0.09 nM; in assay [3] (Hepatitis C virus), 0.0024 nM.
In the case of `COC(=O)N[C@H](C(=O)N1CCC[C@H]1c1ncc(-c2cc(F)c3c(c2)OC(c2cnc(-c4cnn(C)c4)s2)n2c-3cc3cc(-c4cnc([C@@H]5CCCN5C(=O)[C@@H](NC(=O)OC)C(C)C)[nH]4)ccc32)[nH]1)C(C)C` (mixture of isomers) [Compound 425], the IC50 in assay [1] (setting [6]) came to 0.534 nM; in assay [2] (setting [7]), 1.78 nM; in assay [3] (Hepatitis C virus) it was 0.0069 nM.
As to `COC(=O)N[C@H](C(=O)N1CCC[C@H]1c1ncc(-c2cc(F)c3c(c2)OC(c2nc4c(s2)CCC4)n2c-3cc3cc(-c4cnc([C@@H]5CCCN5C(=O)[C@@H](NC(=O)OC)C(C)C)[nH]4)ccc32)[nH]1)C(C)C` (single isomer, unassigned) [Compound 505], the IC50 in assay [1] (setting [4]) came out at 0.152 nM; in assay [2] (read-out: 2B IC50, replicon 2B), 0.22 nM; in assay [3] it was 0.0015 nM.
For the compound `CCc1ncc(C2Oc3cc(-c4cnc([C@@H]5CCCN5C(=O)[C@@H](NC(=O)OC)C(C)C)[nH]4)cc(F)c3-c3cc4cc(-c5cnc([C@@H]6CCCN6C(=O)C(NC(=O)OC)C6CCOC(C)(C)C6)[nH]5)ccc4n32)s1` (single isomer, unassigned) [Compound 38], the IC50 in assay [1] (setting [4]) stood at 0.204 nM; in assay [3], 0.0029 nM.
As to `CCc1nnc(C2Oc3cc(-c4cnc([C@@H]5CCCN5C(=O)[C@@H](NC(=O)OC)C(C)C)[nH]4)cc(F)c3-c3cc4cc(-c5cnc([C@@H]6CCCN6C(=O)C(NC(=O)OC)C(C)C)[nH]5)ccc4n32)s1` (single isomer, unassigned) [Compound 115], the IC50 came out at 0.79 nM in assay [1] (setting [6]) and 0.008 nM in assay [3].
For `COC(=O)N[C@H](C(=O)N1CCC[C@H]1c1ncc(-c2cc(F)c3c(c2)OC(c2cnc(C(F)F)s2)n2c-3cc3cc(-c4cnc([C@@H]5CCCN5C(=O)[C@@H](NC(=O)OC)C(C)C)[nH]4)ccc32)[nH]1)C(C)C` (single isomer, unassigned) [Compound 19], the IC50 came to 1.24 nM in assay [1] (setting [4]) and 0.933 nM in assay [2] (read-out: 2B IC50, replicon 2B).
Consider `COC(=O)N[C@H](C(=O)N1CCC[C@H]1c1ncc(-c2cc(F)c3c(c2)OC(c2cnns2)n2c-3cc3cc(-c4cnc([C@@H]5CCCN5C(=O)[C@@H](NC(=O)OC)C(C)C)[nH]4)ccc32)[nH]1)C(C)C` (single isomer, unassigned) [Compound 4], for which the IC50 in assay [1] (setting [4]) is 1.39 nM; in assay [2] (read-out: 2B IC50, replicon 2B), 0.98 nM.
For `COC(=O)N[C@H](C(=O)N1CCC[C@H]1c1ncc(-c2cc(F)c3c(c2)OC(c2nc(C4CC4)cs2)n2c-3cc3cc(-c4cnc([C@@H]5CCCN5C(=O)[C@@H](NC(=O)OC)C(C)C)[nH]4)ccc32)[nH]1)C(C)C` (single isomer, unassigned) [Compound 12] the same measures were 0.18 nM and 2.21 nM.
